Experimental data: a melting point compilation (Tetko et al.; mined from patent text by program, amines drawn as free bases though some values may be those of a salt)

SMILES	melting point [°C]
Cc1cccc(C)c1CO	84
O=C1CCCC2=C1C(c1ccc(F)c(Cl)c1)C1=C(CCS1)N2 (centres undefined)	> 250
CCOC1(C#N)NC(=O)C(=O)NC1(C#N)OCC (centres undefined)	205 to 208
COC(=O)C(C)Oc1cc(Cl)ccc1CO (centres undefined)	51 to 52
CC(=O)OC1CCC2(C)C(CCC3=C4C(=O)CC(C(C)CCCC(C)(C)O)C4(C)CCC32)C1 (centres undefined)	151 to 152
COc1c(C2CCN(CCCCNC(=O)c3ccc(-c4ccc(C#N)cc4)cn3)CC2)ccc2c1CCCC2	140
CCN1CN(C2CC(O)C(CO)O2)C(=O)NC1=O (centres undefined)	162
CCOC(=O)c1c(C)nc(C(C)C)c2nnn(CC)c12	55 to 57
CCCCCCCCCCCCNC(=O)C1CCC(=O)N1 (centres undefined)	114 to 116
C[C@]12CC[C@@H]3c4ccc(O)cc4CC[C@H]3[C@@H]1CCC2=C(F)F	154 to 156
COC(=O)CCSc1ncccc1C#N	101 to 102
COc1cc(C=O)cc(OC)c1F	97 to 98
CC(C)n1cc(C2CCC(=O)CC2)c2cc(C#N)ccc21	106 to 107
COc1ccc(Cn2c(=S)[nH]c(=O)c3[nH]cnc32)cc1OC1CCCC1	254 to 265
O=C(O)C1CCc2ccc(O)cc2C1 (centres undefined)	170 to 171
Cc1nc2cc(NC(=O)c3cc4cc(C(F)(F)F)cnc4n3Cc3ccncc3)ccc2s1	208 to 210
O=c1n(C2CCOC2)cc(-c2ccncc2)n1-c1ccc(F)cc1 (centres undefined)	132 to 134
CCn1c(=O)sc2cc(N3C[C@H](C(=O)NC)OC3=O)ccc21	227 to 229
COC(=O)c1cc(N=C=S)c(C)cc1OC	86 to 87.5
CCOc1cc(Cc2cnc(N)nc2N)cc2c1OC1(C=C2Br)CCC1	213 to 214
Nc1c(F)c(Cl)c(O)c(Cl)c1F	151
Nc1c(F)c(N2CCC(n3cncn3)C2)c(F)c2c1c(=O)c(C(=O)O)cn2C1CC1 (centres undefined)	240

SMILES	melting point [°C]
COc1ccc(C2=NN(Cc3ccccc3C(F)(F)F)C(=O)[C@H]3CCCC[C@@H]23)cc1OC (relative stereo)	87 to 88
COC1=C(c2cccc(C(F)(F)F)c2)C(=O)OC1	126
c1ccc2c(c1)NC1CCCc3onc-2c31 (centres undefined)	152 to 154
CCCC(NC=O)C1(c2ccc(Cl)cc2)CCC1 (centres undefined)	97.5 to 98.5
CCc1nn(C)c(N)c1Cl	50 to 51
CCCCn1c(=O)c(C(=O)Nc2ccncc2)c(O)c2sccc21	212 to 216
CC(=O)NC1C(O)OC(CO)C(O)C1OC(C)C(=O)NC(C)C(=O)NC(CCC(=O)O)C(N)=O (centres undefined)	150 to 151
Cc1cccc(-c2nnn[nH]2)c1	150 to 152
Cc1c(C)c2c(c(C)c1NC(=O)CC(C)(C)C)C(=O)C(C)(C)O2	155 to 156
N#CC(C#N)(OC(=O)c1ccc(Cl)cc1)c1ccc(Cl)cc1	158 to 159
COc1ccc(-c2nc(SCCCSc3nc(-c4ccc(OC)cc4)c(-c4ccc(OC)cc4)[nH]3)[nH]c2-c2ccc(OC)cc2)cc1	128 to 130
CON=C(C(=O)OC)c1nsc(N)n1	172 to 174
CC1=CC(=Cc2cc(C)cc(C3(C)CCCCC3)c2OCc2ccccc2)C(O)C(C2(C)CCCCC2)=C1 (centres undefined)	97 to 99
CC(=O)Nc1ccc(Br)c2c1CCCC2	185 to 189
CCCCc1nc(C(=O)O)c(C(=O)O)[nH]1	261 to 263
C1CCC(CC2CNCCNCCNCCNCCN2)CC1 (centres undefined)	87 to 89
Cc1cc(N=Nc2ccccn2)ccc1-c1ccc(-c2ccc(N=Nc3ccccn3)cc2C)s1	152 to 153
CCCCc1ccc(NC(=O)CBr)c([N+](=O)[O-])c1	56 to 57
CCOC(=O)CNc1c(Br)cc(Br)cc1Br	81 to 82
N#CCCCCCCn1c(-c2ccccc2)nc(-c2ccccc2)c1-c1ccccc1	104 to 106
O=C/C=C/c1cc2ccccc2o1	67
CC(N1C(=O)C(=O)N(c2ccc(F)cc2F)C1=S)C(C)(C)C (centres undefined)	155 to 156

Continued, values first:

melting point [°C]	SMILES
128 to 130	COC(=O)c1ccc(OCCCN(C(=O)CCC(=O)Nc2ccc(Cl)cc2)c2ccc(Cl)cc2)cc1
201 to 203	Nc1cc(-c2cccnc2)cc2nc(-c3ccccc3)nn12
113 to 116	CC(=O)NNc1nc(C(F)(F)F)nc(-c2ccccc2)c1-c1ccccc1
164 to 170	COc1nc(OC)nc(N(C)C(=O)NS(=O)(=O)c2ccccc2C(F)F)n1
224 to 228	COc1ccc(N2C(=O)N(c3cccc(C#N)c3)c3nc(Nc4ccccc4)ncc3C2C)cc1 (centres undefined)
231 to 232	O=S(=O)(O)CCCCN1CCN(C(c2ccc(F)cc2)c2ccccn2)CC1 (centres undefined)
161 to 162	O=c1c2nc(Br)n(Cc3ccccc3)c2ncn1Cc1ccccc1
158 to 162	O=C(O)C(CSc1ccccc1)CS(=O)(=O)c1ccc(-c2ccc(Cl)cc2)cc1 (centres undefined)
86 to 87	CC(=O)OCc1ccc(-c2ccc(COC(C)=O)cc2)cc1
225	CN(c1cccc2cc(-c3nccs3)[nH]c12)S(=O)(=O)c1ccsc1C(=O)O
95 to 100	Nc1cccc(C(=O)NCc2ccccc2)c1
187 to 188	Cc1cc(-c2ccc(C(F)(F)F)nc2)cc(-c2cccc(-c3cccc(S(=O)(=O)NC(C)(C)C)c3)n2)n1
135 to 138	Cc1c(C)c2c(c(C)c1N)CC(C)(CN1CCN(C(=O)CCC(c3ccccc3)c3ccccc3)CC1)O2 (centres undefined)
210	O=C(Nc1ccc2[nH]ncc2c1)O[C@H](c1ccc(Cl)c(Cl)c1)[C@H]1CCCCN1
291 to 292	CC(=O)Nc1ccc(/C=C/C(=O)O)cn1
164	Cc1ccc(-c2c(N(C)C(=O)OC(C)(C)C)n(CC(C)C)c(=O)c3ccc(OCc4ccccc4)cc23)cc1
140 to 145	CC(=O)Nc1nc(CN2CCN(C(c3ccccc3)c3ccc(Cl)cc3)CC2)cs1 (centres undefined)
148 to 150	COc1ccc2cc(C(OC)(OC)C(C)OS(=O)(=O)c3ccc(C)cc3)ccc2c1 (centres undefined)
202 to 206	C[C@@H](n1cnc2cc(C=NNS(N)(=O)=O)ccc2c1=O)[C@](O)(Cn1cncn1)c1ccc(F)cc1F
162 to 163	CCOC(=O)C1=C(C)NC(CO)=C(C(=O)OCC)C1c1cccc(O)c1 (centres undefined)
144 to 146	COC(=O)c1ccc(-c2ccc(-c3ccccc3)c(-c3ccc4c(c3)C(C)(C)CCC4(C)C)c2)c(OC)c1
75 to 76	CCOC(=O)/C(=C\Nc1cc(OC)cc(OC)c1)c1ccccc1
144 to 145	O=[N+]([O-])c1ccc(OCCc2ccc(CO)cn2)cc1
193 to 195	CNC(=O)c1ccccc1N=C(NC(=O)c1ccccc1)SC
122 to 123	OCCN1CCOC(c2ccccc2)(c2ccccc2)CC1
69 to 72	O=C1c2ccccc2COc2ccc(CCCCl)cc21
163 to 164	CCCCc1c(/C=C/C(=O)O)ccc2cc(OC)ccc12
182 to 184	CN1C(=O)CC[C@]2(C)c3ccc(-c4cccc5cnccc45)cc3CC[C@@H]12

melting point [°C]	SMILES
98 to 99	O=S(=O)(CCc1ccccc1)CCc1ccccc1
227	CCOC(=O)c1c(N2CCN(C(=O)c3cccs3)CC2)c2cscc2n(Cc2ccc(F)cc2)c1=O
117 to 122	COc1ccc(-c2ccc3c(c2)c(C)c(-c2ccccc2)n3Cc2ccccc2)cc1
89.5 to 92.5	CN(C)CCCOc1ccc(N(C(=O)c2ccc([N+](=O)[O-])cc2)c2ccccc2)cc1
181 to 182	CCOC(=O)c1c(CS(=O)(=O)c2nc3ccccc3[nH]2)nc2cc(OC)c(OC)cc2c1-c1ccc(OC)c(OC)c1
215 to 217	COc1cc(OC)c2c(=O)[nH]c(-c3ccc4[nH]c(CCN5CCCC5)cc4c3)nc2c1
112 to 114	CCCCCC(=O)n1nc(-c2cc(C(C)(C)C)c(O)c(C(C)(C)C)c2)c2cccnc21
183 to 184	COc1cccc(OCCCc2cn(-c3ccc(C(F)(F)F)cn3)nc2C(C)C)c1CC(=O)O
165 to 166	CC(C)(NS(=O)(=O)c1ccc(-c2ccccn2)s1)C(=O)NO
143	Cc1ccncc1-c1cccc(OC2SCC(O)C(O)C2O)c1 (centres undefined)
148	CCCCNC(=O)c1nc(-c2ccccc2)c(-c2ccc(=O)n(C(C)C)n2)s1
73	Cc1cc(C)cc(-c2cnn3c(-c4cccc(-c5nnn(Cc6cccnc6)n5)c4)ccnc23)c1
246 to 247	CC(C)n1c(=O)c(=O)[nH]c2cccnc21
203 to 205	COc1ccc(Cn2c(C(=O)O)c(-c3ccc4c(c3)OCO4)c3cc(OCC(=O)O)ccc32)c(OCC(=O)O)c1
> 300	O=C(Cn1c(=O)c(=O)[nH]c2cc([N+](=O)[O-])c(-n3cccc3)cc21)NCc1ccccc1
138 to 140	CC(C)n1nc(-c2sc(NC(=O)N3CCCCC3)nc2-c2ccccc2)ccc1=O
145 to 147	O=C(Nc1ccccc1S(=O)(=O)NCCCn1ccnc1)c1cccc(C(F)(F)F)c1
132 to 134	O=[N+]([O-])c1cccc(NS(=O)(=O)c2ccccc2)c1
178 to 182	Nc1ccc(-c2cc3c(Oc4ccc(Cl)cc4)cncc3s2)cc1
123 to 124	CN(C)CCCOc1ccc(Nc2nccc(-c3ccncc3)n2)cc1
176 to 177	CC(C)(C)c1ccc(NC(=O)c2ccc(C3=NCCS3)cc2)cc1
197 to 199	CC(C)CC(=O)Nc1c(C(=O)c2cccc(Cl)c2)[nH]c2ccc([N+](=O)[O-])cc12
85 to 87	O=C1NC(=O)C(c2ccc(OCCC(c3ccccc3)(c3ccccc3)c3ccccc3)cc2)S1 (centres undefined)
144	COc1cc(N)c(I)cc1C(=O)NC1(C)CCN(CCCOc2ccc(F)cc2)CC1
163 to 166	O=C(O)c1cccc(Oc2ccc(O)cc2)c1
189 to 192	CCOC(=O)N(CC(=O)O)n1nnc2ccccc21
176 to 179	COc1cc(N2CCC(N3CCN(C)CC3)CC2)ccc1Nc1ncc2cc3ccccc3n2n1
